The values below come from paper PMC7645381, “Development and application of a high-throughput screening assay for identification of small molecule inhibitors of the P. falciparum reticulocyte binding-like homologue 5 protein” (International Journal for Parasitology: Drugs and Drug …, 2020).

Experiment [1] concerns P. falciparum 3D7 parasites. Nature of the experiment: P. falciparum parasite viability assay (LDH). Type of experiment: cell-based. Here is the method: A modified version of the lactate dehydrogenase (LDH) assay described by [Gamo et al. […] Compounds were pre-dispensed in 384-well plates, RPMI/Albumax growth media was added, and P. falciparum inoculated. Plates were incubated for 72 h and then frozen at −80 °C overnight. LDH activity was quantified with the modified cofactor 3-acetylpyridine adenine dinucleotide (APAD) (Sigma Aldrich) by measuring absorbance of the tetrazolium indicator nitro blue tetrazolium (NBT) (Sigma Aldrich) at 650 nm. Parasite conditions: […] Growth inhibition assay: […] Intermediate compound dilution plates were prepared by dispensing 5 μL from each well of the compound master plate into 11.5 μL of RPMI/Albumax growth media. Duplicate assay plates (384-well) were then prepared by dispensing 0.5 μL of compound from the intermediate dilution plates into 9.5 μL of RPMI/Albumax growth media. […] The final DMSO concentration was 0.1% (to limit toxicity to parasites). […] Evaluation of parasite growth measuring lactate dehydrogenase (LDH) activity: After 72 h of incubation, plates were frozen at −80 °C overnight and then thawed at room temperature for at least 4 h. […] Plates were shaken to ensure mixing and absorbance at 650 nm was monitored using a PerkinElmer Envision plate reader after 30 min of incubation at room temperature. Data were normalised to percent growth inhibition using positive and negative controls and analyzed using TIBCO Spotfire software.

Another experiment concerns HepG2 cells. Nature of the experiment: HepG2 growth inhibition assay. In kind it is cell-based. The note with it: Homo sapiens, 10-point dilution series, 48 h, Cell Titre-Glo. Here is the method: HepG2 cells were cultured in Dulbeccos modified eagle's medium (DMEM) supplemented with 10% fetal calf serum (FCS), in a humidified incubator at 37 °C and 5% CO2. Ten-point compound titration assays were performed by treating cells (1 × 10^3) for 48 h in 384 well tissue culture treated plates (Greiner). Cytotoxicity was determined using Cell Titer Glo (Promega) and calculated as a percentage using DMSO as a positive growth control and 10 μM Bortezomib as a negative growth control. EC50 values were calculated using a 4-parameter log dose, non-linear regression analysis, with sigmoidal dose response (variable slope) curve fit using Graph Pad Prism (version 6.05). 0 and 100 constraint parameters were used for curve fitting. […]

The next experiment has as its system D10-PfPHG parasites. Nature of the experiment: Schizont rupture assay. Type of experiment: cell-based, P. falciparum. The method, then: D10-PfPHG parasites ([Wilson et al., 2010]) were cultured in human O^+ erythrocytes in RPMI-HEPES culture medium (pH 7.4, 50 μg/mL hypoxanthine, 25 mM NaHCO3, 20 μg/mL gentamicin, 0.5% Albumax II (Thermo Fisher Scientific) according to established protocols ([Trager and Jensen, 1976]) and maintained in an atmosphere of 1% O2, 4% CO2 and 95% N2. For assessment of merozoite invasion after schizont rupture, parasites were tightly synchronised to a 4 h window of invasion using heparin ([Boyle et al., 2010]; [Wilson et al., 2015]) and then grown for a further 42 h. Drug treatments were setup at 2–3% parasitaemia and 1% haematocrit in 50 μL volumes with a 1 in 10 dilution of drug added when parasites were 44–48 h post invasion. After 6 h of drug treatment and immediately after invasion was expected to finish, the assays were treated with 5 μg/mL ethidium bromide (EtBr, Bio-Rad) for 5 min prior to flow cytometry assessment of parasitaemia using a Becton Dickinson Accuri. Gating of newly invaded rings, free merozoites and unruptured late stages was achieved as per published methods ([Wilson et al., 2013]).
To determine if the modest activity of pranlukast and analogues in the parasite viability assay was a consequence of invasion inhibition, rather than inhibition at another stage of blood stage parasite development, we performed an assay that measures the effect of compound treatment on P. falciparum D10 asexual stage transition between late schizont and ring stages ([Wilson et al., 2013]). In this assay, highly synchronised mature schizont-stage parasites were incubated with pranlukast and selected analogues at 50 and 100 μM and the transition to newly invaded ring stage parasites was quantified by flow cytometry. In parallel, the rate of schizont rupture and merozoite release was quantified to assess whether any reduction in newly invaded ring stages was due to a block affecting merozoite release or development. […] Neither DMSO (at the maximal concentration used for the drug treatments of 0.1%) or a non-invasion inhibitory mAb control caused a reduction in merozoite invasion. […] […].

The target in experiment [2] is P. falciparum Rh5 (Rh5 – basigin interaction) (Plasmodium falciparum, UniProt Q8IFM5). Nature of the experiment: biochemical. Type of experiment: binding. The note with it: for Rh5 inhibitory activity in the AlphaScreen assay: highest concentration tested 50 μM. A general note: In Alpha technology, singlet oxygen from a donor bead excites a nearby acceptor bead.
P. falciparum Rh5 (Rh5 – basigin interaction), sequence (Q8IFM5 24-526): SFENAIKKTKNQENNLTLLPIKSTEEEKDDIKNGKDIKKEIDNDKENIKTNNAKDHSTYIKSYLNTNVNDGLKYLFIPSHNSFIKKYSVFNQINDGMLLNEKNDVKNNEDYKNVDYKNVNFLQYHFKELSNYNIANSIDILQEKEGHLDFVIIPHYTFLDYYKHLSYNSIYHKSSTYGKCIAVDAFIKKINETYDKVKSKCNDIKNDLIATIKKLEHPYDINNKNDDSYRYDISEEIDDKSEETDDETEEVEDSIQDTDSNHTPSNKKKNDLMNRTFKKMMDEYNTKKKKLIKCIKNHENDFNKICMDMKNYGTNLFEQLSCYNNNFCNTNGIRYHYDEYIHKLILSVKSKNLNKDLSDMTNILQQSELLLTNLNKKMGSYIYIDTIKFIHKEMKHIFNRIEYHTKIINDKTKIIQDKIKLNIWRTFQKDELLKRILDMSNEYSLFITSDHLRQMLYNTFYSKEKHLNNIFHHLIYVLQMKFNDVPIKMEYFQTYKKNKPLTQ
For a further experiment, the system named is P. falciparum D10. Nature of the experiment: P. falciparum D10 growth inhibition by flow cytometry. The note with it: for EC50: Plasmodium falciparum, D10, growth inhibition by flow cytometry, 12-point dilution series, 72 h. Type of experiment: cell-based. The method, then:
Pranlukast and selected analogues were then evaluated in a P. falciparum parasite viability assay. For this assay, we followed the procedure described by [Gamo et al. (2010)], that used lactate dehydrogenase (LDH) as a readout for parasite viability. In this assay, 3D7 parasites were incubated over 72 h in the presence of increasing concentrations of compounds. […]. For a comparison, selected compounds were incubated in the presence of P. falciparum D10 parasites for 72 h (Table 1, Fig. S14) and growth inhibition measured by flow cytometry. […].

Experiment [3] is described as follows: AlphaScreen TruHits counterscreen assay. The note with it: TruHits counterscreen, single point, 10 μM in duplicate. Here is the method: The counterscreen assay was conducted using AlphaScreen TruHits kit (PerkinElmer). Biotinylated acceptor beads and Streptavidin donor beads were both diluted in assay buffer (final concentration of 10 μg/mL). Using the Combi-multidrop, 10 μL of each bead solution (20 μg/mL prepared in assay buffer) was added to every well of the assay plate under subdued lighting. Compound addition and assay readout was performed as described above.

Setting [4] is: Plasmodium falciparum, 3D7, 72 h, LDH activity, 10-point dilution series, 72 h, read-out: P. falciparum 3D7 EC50.
Where [5] appears, read: 50 and 100 μM, 6 h, flow cytometry.
The mark [6] stands for this setting: LDH activity, 10-point dilution series, 72 h, read-out: P. falciparum 3D7 EC50.

Where two headings read alike, the source gives them in different places. A value given as a limit tells only on which side of the number the result lay.

Usually EC50 stands for the concentration needed to bring the measured effect to its halfway point. For the molecule `C[C@H]1CCC/C=C/[C@@H]2C[C@H](O)C[C@H]2[C@H](O)/C=C/C(=O)O1` [Brefeldin A, reference compound], the concentration for a half-maximal effect (EC50) in experiment [1] (setting [4]) is 3.5 µM.

Turning to `CCN(CC)CCCC(C)Nc1ccnc2cc(Cl)ccc12` (stereo not shown) [Chloroquine, reference compound], in experiment [1] (Plasmodium falciparum, 3D7, 72 h, read-out: P. falciparum 3D7 EC50, control, LDH activity, 72 h), the EC50 worked out at 0.018 µM.

As usually defined, the IC50 is the concentration at which inhibition is half-maximal. A low value points to greater potency in that assay. Regarding `CCOC(=O)c1cc(=O)c2cccc(NC(=O)c3ccc(OCCCc4ccccc4)cc3)c2o1` [Compound 13, Ethyl 4-oxo-8-(4-(3-phenylpropoxy)benzamido)-4H-chromene-2-carboxylate], the EC50 (in the experiment on HepG2 cells; in experiment [1] (setting [4]); in the experiment on P. falciparum D10) was greater than 50 µM in each case. The free merozoite numbers entry with D10-PfPHG parasites (setting [5]) is reported as “no reduction in free merozoite numbers”. In addition, in the experiment with D10-PfPHG parasites (setting [5]), the “merozoite invasion (newly invaded early ring stages)” value (“merozoite invasion” for short) is given as “minimal inhibition of merozoite invasion”. For the same molecule, the IC50 in experiment [2] is greater than 50 µM.

On to `O=C(Nc1cccc2c(=O)cc(C(=O)O)oc12)c1ccc(OCCc2ccccc2)cc1` [Compound 16, 4-Oxo-8-(4-phenethoxybenzamido)-4H-chromene-2-carboxylic acid], for which the EC50 was greater than 50 µM in the experiment with HepG2 cells, 37 µM in experiment [1] (setting [6]), 40 µM in experiment [1] (setting [4]) and 6.7 µM in the experiment with P. falciparum D10. Further, in the experiment with D10-PfPHG parasites (setting [5]), the “merozoite invasion” value was “substantial reduction in the numbers of merozoites that had invaded and formed early ring stages”. Also, the free merozoite numbers entry in the experiment on D10-PfPHG parasites (lowest concentration tested (50 μM)) is “minimal loss in free merozoite numbers”. Besides, half-maximal inhibition in experiment [2] (IC50) was put at 40 µM. For the same molecule, the “fold more active against the D10 strain than the 3D7 strain” value with P. falciparum D10 (EC50 D10 vs 3D7) is given as 5 fold.

In the case of `O=C(Nc1cccc2c(=O)cc(C(=O)O)oc12)c1ccc(OCCCc2ccccc2)cc1` [Compound 17, 4-Oxo-8-(4-(3-phenylpropoxy)benzamido)-4H-chromene-2-carboxylic acid], the values for the EC50 (in the experiment on HepG2 cells; in experiment [1] (setting [4]); in the experiment on P. falciparum D10) were greater than 50 µM, 15 µM and 19 µM, respectively. In the experiment with D10-PfPHG parasites (setting [5]), the free merozoite numbers entry was “no reduction in free merozoite numbers”. For the same molecule, in the experiment on D10-PfPHG parasites (setting [5]), the “merozoite invasion” value is recorded as “minimal inhibition of merozoite invasion”. The same molecule gave an IC50 in experiment [2] of 24 µM.

`COc1ccc(C(=O)Nc2cccc3c(=O)cc(C(=O)O)oc23)cc1` [Compound 21, 8-(4-Methoxybenzamido)-4-oxo-4H-chromene-2-carboxylic acid] came in with an EC50 in the experiment with HepG2 cells greater than 50 µM. In addition, the EC50 in experiment [1] (setting [4]) was greater than 50 µM. In experiment [2], the 50% inhibitory concentration (IC50) was greater than 50 µM and the “Rh5 inhibitory activity in the AlphaScreen assay” value (from here on “Rh5 inhibitory activity”) is given as “No activity”.

Turning to `COc1ccc(C(=O)Nc2cccc3c(=O)cc(-c4nn[nH]n4)oc23)cc1` [Compound 24, 4-Methoxy-N-(4-oxo-2-(2H-tetrazol-5-yl)-4H-chromen-8-yl)benzamide], the EC50 with HepG2 cells was greater than 50 µM; in experiment [1] (setting [4]), 25 µM. For the same molecule, the concentration for half-maximal inhibition (IC50) in experiment [2] was greater than 50 µM.

For the molecule `O=C(Nc1cccc2c(=O)cc(-c3nn[nH]n3)oc12)c1ccc(OCCCc2ccccc2)cc1` [Compound 25, N-(4-Oxo-2-(2H-tetrazol-5-yl)-4H-chromen-8-yl)-4-(3-phenylpropoxy)benzamide], the EC50 with HepG2 cells was greater than 50 µM; in experiment [1] (setting [6]), 7.3 µM; in experiment [1] (setting [4]), 7 µM. In addition, in experiment [2], half-maximal inhibition (IC50) was put at 20 µM.

Consider `CCCc1c(OCC(O)COc2ccc3c(=O)cc(C(=O)O)oc3c2CCC)ccc(C(C)=O)c1O` (stereo not shown) [FPL 55712, reference compound], for which the EC50 in the experiment with HepG2 cells was greater than 50 µM; in experiment [1] (Plasmodium falciparum, 3D7, 72 h, read-out: P. falciparum 3D7 EC50) it was greater than 50 µM.

In the case of `O=C(O)c1ccccc1Nc1cccc(OCc2ccc3ccccc3n2)c1` [SR2540, reference compound], the EC50 with HepG2 cells is greater than 50 µM; in the experiment on P. falciparum D10, 6.1 µM. The free merozoite numbers entry in the experiment on D10-PfPHG parasites (setting [5]) was “similarly reduced numbers of free merozoites”. In the experiment on D10-PfPHG parasites (setting [5]), the “merozoite invasion” value is “reduction in numbers of merozoites that had invaded and formed early ring stages”. In addition, the “increase in unruptured schizonts” value in the experiment on D10-PfPHG parasites (at the concentrations tested (50 and 100 μM)) was greater than 40%. The IC50 in experiment [2] is greater than 50 µM.

With `Oc1c(Cl)cc(Cl)c(Cl)c1Cc1c(O)c(Cl)cc(Cl)c1Cl` [WEHI-0104268, Hexachlorophene, reference compound], the “% Inhibition Counter” value in experiment [3] stood at 28.8475%.

Broadly, the inhibition is the percentage by which the read-out fell short of the control. Consider `O.c1cnc2c(c1)ccc1cccnc12` [WEHI-1215482, 1,10-Phenanthroline monohydrate, reference compound], for which, in experiment [3], the “% Inhibition Counter” value worked out at 2.663%. Besides, the inhibition at 10 µM in experiment [2] (read-out: % Inhibition Confirmation) is 99.6%.

Take `O=C([O-])c1ccccc1-c1c2cc(Br)c(=O)cc-2oc2[c]([Hg+])c([O-])c(Br)cc12.[Na+].[Na+].[OH-]` [WEHI-1216497, Merbromin, reference compound]: the “% Inhibition Counter” value in experiment [3] is given as 29.2235%. Besides, the “% Inhibition Confirmation” value in experiment [2] (confirmation, single point, 10 μM in duplicate) is 100.385%. For the same molecule, the “% Inhibition Pilot” value in experiment [2] (primary screen, 20 μM) is given as 100.87%.

Regarding `CCC(CC)(CC(=O)Nc1cccc(/C=C/c2nc(C3CCC3)cs2)c1)C(=O)O` [cinalukast, reference compound], the concentration giving a half-maximal response (EC50) in the experiment on HepG2 cells was greater than 50 µM. Also, in the experiment with D10-PfPHG parasites (setting [5]), the free merozoite numbers result is “similarly reduced numbers of free merozoites”; the “merozoite invasion” value was “reduction in numbers of merozoites that had invaded and formed early ring stages”. Also, in experiment [2], the IC50 is greater than 50 µM and the “Rh5 inhibitory activity” value is “did not show Rh5 inhibitory activity”. Besides, in the experiment on P. falciparum D10, the EC50 came out at 32 µM.

Regarding `COc1cc(C(=O)NS(=O)(=O)c2ccccc2C)ccc1Cc1cn(C)c2ccc(NC(=O)OC3CCCC3)cc12` [zafirlukast, reference compound], the EC50 with HepG2 cells is greater than 50 µM; in experiment [1] (setting [6]), 5.9 µM; in experiment [1] (setting [4]) it was 6 µM. In experiment [2], this molecule gave an IC50 of 17 µM. Besides, the “Rh5 inhibitory activity” value in experiment [2] is “possess inhibitory activity”.

As to “cDPCP [WEHI-1215640, reference compound]”, the “% Inhibition Counter” value in experiment [3] is recorded as 2.1075%.

For heparin, in the experiment with D10-PfPHG parasites (setting [5]), the free merozoite numbers result is on record as “not free merozoites” and the “merozoite invasion” value is on record as “reduction in the number of early rings stage parasites”.
